The source of these data is ChEMBL document CHEMBL1133051, “Design and synthesis of a novel water soluble benzotetrazepinone” (Bioorg Med Chem Lett, 2000).

The assay deals with MCF7. Description: Inhibitory concentration of compound against Mer+ breast tumor cell line MCF-7. The format is functional, cell-based. The conditions noted are these: Homo sapiens.

The IC50 is the midpoint of a concentration-inhibition curve. The compound `Cn1nnc2c(C(N)=O)ncn2c1=O` [TEMOZOLOMIDE] gave a 50% inhibitory concentration (IC50) of 800 µM. Compound `CN1N=Nc2cc(C(=O)NCCN3CCOCC3)ccc2N(C)C1=O` showed an IC50 of 80 µM.
